Source: patent publication US7923465B2, “Cannabinoid receptor ligands, pharmaceutical compositions containing them, and process for their preparation” (priority 2005, dated 2011)
Like-named read-outs stand apart in the source and are kept apart here.

Key:
hCB1 [1] = molecular target: T1, hCB1 (Homo sapiens, UniProt P21554); assay: Agonism of CB1 receptors expressed in CHO cells, forskolin cAMP assay (Protocol IX.2); format: cell-based; design: expressed in transfected cells; host or cells: CHO (h-CB1/CHO, G418-selected); settings: CHO, at 10 uM, h-CB1/CHO cells, cAMP
Protocol: (§1) IX. Assay for Determining Agonist and Antagonist Activity to CB1 and CB2 Receptors
(§2) 2. Agonism of CB1/CB2 Receptors Expressed in CHO Cells
(§3) h-CB1/CHO or h-CB2/CHO cells were grown in HAM's F12 DMEM medium (Sigma) with 10% FBS (Hyclone), 1% penicillin-streptomycin solution and 400 μg/ml of G418 (Sigma). 5000 cells were seeded per well in a 96 well plate and incubated for 24 hours at 37° C. in 5% CO2. On the day of assay, cells were washed with warm Krebs Buffer containing 0.1% fatty acid free (FAF) BSA (Sigma) and re-suspended in the same buffer containing 1 mM IBMX. […] At the end of incubation, cells were lysed using lysis reagent from the cAMP estimation kit and cAMP was quantitated by chemiluminescence method described in the manufacturer's instructions (DiscoveRX). EC50 values were calculated from dose response curves by nonlinear regression analysis using PRISM software.

hCB1 [2] = molecular target: T1, hCB1; assay: Antagonism of CB1 receptors expressed in CHO cells, cAMP assay against CP 55,940 (Protocol IX.1); format: cell-based; design: expressed in transfected cells; host or cells: CHO (h-CB1/CHO, G418-selected); settings: at 10 uM, h-CB1/CHO cells, cAMP, vs 30 nM CP 55,940; read-out: hCB1 Antagonism
Protocol: as §1
(§4) 1. Antagonism of CB1/CB2 Receptors Expressed in CHO Cells.
as §3, with “warm Krebs buffer containing 0.1%” for “warm Krebs Buffer containing 0.1%”, “quantitated by the chemiluminescence method” for “quantitated by chemiluminescence method”

CB1 [3] = molecular target: T2, CB1 (Rattus norvegicus, UniProt P20272); assay: GTPγS binding assay, CB1 functional assay in rat cerebellar membrane (Protocol VIII); format: biochemical; design: 10 μg rat cerebellum membrane; from tissue; host or cells: rat cerebellum membrane, prepared in-house
Method in brief: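 Rat cerebellar membranes (10 μg) incubated 1 h at 30 °C with 0.2 nM [35S]GTPγS, 50 μM GDP, and compound at 1 μM or 300 nM, alone or with 1 μM WIN 55,212-2, in Tris/MgCl2/EGTA/NaCl pH 7.4. Filter-bound radioactivity counted; percent stimulation calculated against basal specific binding (nonspecific defined by 10 μM GTPγS).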

CB1 [4] = molecular target: T2, CB1; assay: Rat CB1 receptor binding using brain membrane, [3H]SR141716A displacement (Protocol I); design: CB1 receptor present in a rat brain membrane preparation; from tissue; host or cells: rat brain membrane; inhibition: dose or concentration left out as unconfirmed; settings: 1 h; rat brain membrane, [3H]SR141716A displacement; read-out: % Displacement Protocol I
hCB2 [5] = molecular target: T3, hCB2 (Homo sapiens, UniProt P34972); assay: Agonism of CB2 receptors expressed in CHO cells, forskolin cAMP assay (Protocol IX.2); format: cell-based; design: expressed in transfected cells; host or cells: CHO (h-CB2/CHO, G418-selected); settings: cAMP; for hCB2 Agonism: at 10 uM
Protocol: as §1, §2
h-CB1/CHO or h-CB2/CHO cells were grown in HAM's F12 DMEM medium (Sigma) with 10% FBS (Hyclone), 1% penicillin-streptomycin solution and 400 μg/ml of G418 (Sigma). 5000 cells were seeded per well in a 96 well plate and incubated for 24 hours at 37° C. in 5% CO2. On the day of assay, cells were washed with warm Krebs Buffer containing 0.1% fatty acid free (FAF) BSA (Sigma) and re-suspended in the same buffer containing 1 mM IBMX. Test compound or CP 55,940 as a reference compound (30 nM final concentration for CB1 testing and 10 μM of the same for CB2 testing) diluted in FFB+IBMX+Krebs buffer was added to the cells followed by forskolin addition (10 uM final concentration) and incubated for 30 minutes at room temperature. At the end of incubation, cells were lysed using lysis reagent from the cAMP estimation kit and cAMP was quantitated by chemiluminescence method described in the manufacturer's instructions (DiscoveRX). EC50 values were calculated from dose response curves by nonlinear regression analysis using PRISM software.

hCB2 [6] = molecular target: T3, hCB2; assay: Antagonism of CB2 receptors expressed in CHO cells, cAMP assay against CP 55,940 (Protocol IX.1); format: cell-based; design: expressed in transfected cells; host or cells: CHO (h-CB2/CHO, G418-selected); settings: CHO, h-CB2/CHO cells, vs 10 nM CP 55,940
Protocol: as §1, §4
h-CB1/CHO or h-CB2/CHO cells were grown in HAM's F12 DMEM medium (Sigma) with 10% FBS (Hyclone), 1% penicillin-streptomycin solution and 400 μg/ml of G418 (Sigma). 5000 cells were seeded per well in a 96 well plate and incubated for 24 hours at 37° C. in 5% CO2. On the day of assay, cells were washed with warm Krebs buffer containing 0.1% fatty acid free (FAF) BSA (Sigma) and re-suspended in the same buffer containing 1 mM IBMX. Test antagonist or reference compound (AM 251 (1-(2,4-dichlorophenyl)-5-(4-iodophenyl)-4-methyl-N-(1-piperidyl)pyrazole-3-carboxamide) for CB1 and SR144528 for CB2) diluted in FAFBSA+IBMX+Krebs buffer was added to the cells and incubated for 10 minutes at room temperature. CP 55,940 (30 nM final concentration for CB1 testing and 10 nM of the same for CB2 testing) was added to cells followed by forskolin (10 μM final concentration) and incubated for 30 minutes at room temperature. At the end of incubation, cells were lysed using lysis reagent from the cAMP estimation kit and cAMP was quantitated by the chemiluminescence method described in the manufacturer's instructions (DiscoveRX). EC50 values were calculated from dose response curves by nonlinear regression analysis using PRISM software.

hCB2 [7] = molecular target: T3, hCB2; assay: In vitro binding assay using hCB2-CHO membranes, [3H]-CP-55,940 displacement (Protocol IV); design: expressed in transfected cells; host or cells: CHO (hCB2-CHO, generated in-house); settings: 1 h, read-out: % Displacement Protocol IV
Method in brief: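 Compounds were tested at a single 300 nM final concentration for displacing 0.75 nM [3H]-CP-55,940 from hCB2-CHO membranes (1 h, 30 °C, 50 mM Tris pH 7.4, 5 mM MgCl2, 1 mM EDTA, 0.1% BSA). Filter-bound radioactivity was counted, with 0.5 μM unlabelled CP-55,940 for nonspecific binding; results are % displacement.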

[8] = hCB2 Agonism IC50, h-CB2/CHO cells
[9] = hCB2-CHO membranes, [3H]-CP-55,940 displacement
[10] = h-CB2/CHO cells, read-out: hCB2 Agonism IC50

T1 sequence (P21554 whole entry): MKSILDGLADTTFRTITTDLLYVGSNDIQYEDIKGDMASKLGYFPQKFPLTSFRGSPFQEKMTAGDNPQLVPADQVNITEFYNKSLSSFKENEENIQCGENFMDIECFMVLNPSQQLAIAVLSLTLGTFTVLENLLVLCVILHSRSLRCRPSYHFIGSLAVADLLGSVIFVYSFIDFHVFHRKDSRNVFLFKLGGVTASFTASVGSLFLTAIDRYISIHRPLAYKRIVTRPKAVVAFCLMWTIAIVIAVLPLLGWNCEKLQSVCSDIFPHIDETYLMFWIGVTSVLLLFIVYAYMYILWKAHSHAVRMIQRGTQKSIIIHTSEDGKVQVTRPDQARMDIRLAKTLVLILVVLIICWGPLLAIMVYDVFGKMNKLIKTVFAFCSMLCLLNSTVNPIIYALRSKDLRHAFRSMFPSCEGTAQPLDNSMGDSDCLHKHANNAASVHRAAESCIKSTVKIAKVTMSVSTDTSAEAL
T2 sequence (P20272 whole entry): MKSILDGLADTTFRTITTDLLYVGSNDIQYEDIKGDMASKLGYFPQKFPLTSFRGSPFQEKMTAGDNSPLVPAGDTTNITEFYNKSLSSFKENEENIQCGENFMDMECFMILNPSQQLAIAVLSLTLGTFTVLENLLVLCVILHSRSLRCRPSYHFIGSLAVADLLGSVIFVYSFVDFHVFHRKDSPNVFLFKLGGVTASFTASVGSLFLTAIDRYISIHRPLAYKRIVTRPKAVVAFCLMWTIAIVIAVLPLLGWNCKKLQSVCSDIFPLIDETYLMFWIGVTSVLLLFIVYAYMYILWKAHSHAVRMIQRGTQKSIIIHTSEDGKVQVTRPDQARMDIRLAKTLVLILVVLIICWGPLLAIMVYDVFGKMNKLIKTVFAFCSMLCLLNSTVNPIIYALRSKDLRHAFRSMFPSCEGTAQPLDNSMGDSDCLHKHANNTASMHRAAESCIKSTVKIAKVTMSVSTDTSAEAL
T3 sequence (P34972 whole entry): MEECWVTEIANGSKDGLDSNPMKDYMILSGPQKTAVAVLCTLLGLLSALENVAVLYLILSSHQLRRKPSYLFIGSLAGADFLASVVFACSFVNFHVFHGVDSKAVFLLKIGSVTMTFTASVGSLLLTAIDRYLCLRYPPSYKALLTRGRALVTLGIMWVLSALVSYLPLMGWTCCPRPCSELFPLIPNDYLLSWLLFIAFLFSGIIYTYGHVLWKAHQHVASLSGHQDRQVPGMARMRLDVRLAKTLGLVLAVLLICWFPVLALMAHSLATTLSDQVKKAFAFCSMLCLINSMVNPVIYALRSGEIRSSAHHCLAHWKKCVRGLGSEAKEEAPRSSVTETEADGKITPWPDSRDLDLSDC

SMILES	melting point [°C]	inhibition at 10 µM (hCB1 [2]) [%]	inhibition (CB1 [4]) [%]	inhibition at 10 µM (hCB2 [6]) [%]	IC50 (hCB2 [5]; [8]) [nM]	inhibition at 0.3 µM (hCB2 [7]; [9]) [%]	further results
O=C(NNc1ncccc1Cl)c1nn(-c2ccc(Cl)cc2)c2c1C1CC3CC(C1)CC2C3 [Example 134, N(7)-(3-Chloro-2-pyridylamino)-5-(4-chlorophenyl)-5,6-diazatetracyclo[7.3.1.1^3,11.0^4,8]tetradeca-4(8),6-diene-7-carboxamide]	200 to 203	17.5	89.6	–	–	–	activation at 10 µM (hCB1 [1]): 75.6%; activation at 0.3 µM (CB1 [3]; 1 h, GTPγS binding over basal, rat cerebellar membrane, tested at 300 nM, read-out: Per Se % Stimulation): -6%; inhibition at 0.3 µM (CB1 [3]; GTPγS binding, tested at 300 nM in presence of 1 μM WIN 55,212-2, read-out: % Inhibition of WIN-55212-2 induced stimulation): 58.1%
O=C(NC12CC3CC(CC(C3)C1)C2)c1nn(-c2ccc(Cl)cc2Cl)c2c1C1CCC2c2ccccc21 (stereo not drawn) [Example 506, N(12)-(Adamantan-1yl)-10-(2,4-dichlorophenyl)-10,11-diazatetracyclo[6.5.2.0^2,7.0^9,13]pentadeca-2,4,6,9(13),11-pentaene-12-carboxamide]	120 to 124	–	–	80.2	–	–	hCB2 Agonism (hCB2 [5]; h-CB2/CHO cells): 0% at 10 uM; inhibition at 0.3 µM (hCB2 [7]): 52.4%
O=C(NN(C1CCCCC1)C1CCCCC1)c1nn(-c2ccc(Cl)cc2Cl)c2c1C1CCC2C1 (stereo not drawn) [Example 239, N(3)-(N,N-Dicyclohexylamino)-1-(2,4-dichlorophenyl)-4,5,6,7-tetrahydro-1H-4,7-methano-indazole-3-carboxamide]	127 to 130	–	23.5	64.1	42.5	77.1	–
O=C(NC1CCCCC1)c1nn(-c2ccccc2Cl)c2c1C1CCC2C1 (stereo not drawn) [Example 206, N(3)-Cyclohexyl-1-(2-chlorophenyl)-4,5,6,7-tetrahydro-1H-4,7-methano-indazole-3-carboxamide]	171	–	27.4	16	10.5	71.9	–
O=C(NCC1CCCCC1)c1nn(-c2ccc(Cl)cc2Cl)c2c1C1CCC2C1 (stereo not drawn) [Example 238, N(3)-Cyclohexylmethyl-1-(2,4-dichlorophenyl)-4,5,6,7-tetrahydro-1H-4,7-methano-indazole-3-carboxamide]	111 to 113	–	73.9	24.5	–	–	hCB2 Agonism (hCB2 [5]; h-CB2/CHO cells): 55.05% at; activation at 1 µM (CB1 [3]; 1 h, GTPγS binding over basal, rat cerebellar membrane, tested at 1 uM, read-out: Per Se % Stimulation): 0.4%; inhibition at 1 µM (CB1 [3]; GTPγS binding, tested at 1 uM in presence of 1 μM WIN 55,212-2, read-out: % Inhibition of WIN-55212-2 induced stimulation): 59.1%
O=C(NNc1ccc(Cl)cc1Cl)c1nn(-c2ccc(F)cc2F)c2c1C1CC3CC(C1)CC2C3 [Example 150, N(7)-(2,4-Dichlorophenylamino)-5-(2,4-difluorophenyl)-5,6-diazatetracyclo[7.3.1.1^3,11.0^4,8]tetradeca-4(8),6-diene-7-carboxamide]	162	42.9	–	–	–	–	activation at 10 µM (hCB1 [1]): 61.1%
O=C(NCc1ccc(Cl)cc1Cl)c1nn(-c2ccc(F)cc2F)c2c1C1CCC2C1 (stereo not drawn) [Example 307, N5-(2,4-Dichlorobenzyl)-3-(2,4-difluorophenyl)-3,4-diazatricyclo[5.2.1.0^2,6]deca-2(6),4-diene-5-carboxamide]	105 to 108	–	–	21.6	–	–	IC50 (hCB2 [5]; [10]): 0.81 nM; inhibition at 0.3 µM (hCB2 [7]): 70.3%
O=C(NCc1ccccc1Cl)c1nn(-c2ccc(F)cc2F)c2c1C1CC3CC(C1)CC2C3 [Example 149, N(7)-(2-Chlorobenzyl)-5-(2,4-difluorophenyl)-5,6-diazatetracyclo[7.3.1.1^3,11.0^4,8]tetradeca-4(8),6-diene-7-carboxamide]	136	16	–	–	–	–	activation at 10 µM (hCB1 [1]): 79.9%
O=C(NNc1ccc(F)cc1F)c1nn(-c2ccc(Cl)cc2Cl)c2c1C1CCC2C1 (stereo not drawn) [Example 265, N(3)-[(2,4-Difluorophenyl)amino]-1-(2,4-dichlorophenyl)-4,5,6,7-tetrahydro-1H-4,7-methano-indazole-3-carboxamide]	157 to 160	–	31.6	27.2	23.1	70.2	–
O=C(NCc1ccc(Cl)cc1Cl)c1nn(-c2ccc(Cl)cc2)c2c1C1CCC2C1 (stereo not drawn) [Example 223, N(3)-(2,4-Dichlorobenzyl)-1-(4-chlorophenyl)-4,5,6,7-tetrahydro-1H-4,7-methano-indazole-3-carboxamide]	108 to 111	0	52.1	24.4	1.49	59.5	–
CCCCCNC(=O)c1nn(-c2ccc(F)cc2F)c2c1C1CCC2C1 (stereo not drawn) [Example 306, N5-n-Pentyl-3-(2,4-difluorophenyl)-3,4-diazatricyclo[5.2.1.0^2,6]deca-2(6),4-diene-5-carboxamide]	75 to 78	–	–	14.4	–	–	IC50 (hCB2 [5]; [10]): 11.9 nM; inhibition at 0.3 µM (hCB2 [7]): 62.9%
